Assay results from paper PMC10895678 (Journal of Medicinal Chemistry, 2024).
Values joined by “and” are separate entries in the source; they are usually repeats but may differ in a detail not shown here. Equal entries are not always repeated. Where two headings read alike, the source gives them in different places.

Key:
[1] = Mouse PK, multiple oral dosing of single compounds; assay type: in vivo, KM mice; conditions: for AUC(0-inf) / Cmax / Tmax / half-life: po
Text: Methods for combined single dosing (BGAz001–005) and dosing of single compounds multiple times (BGAz004 and BGAz005) are described in detail in the Supporting Information (PK Data).
Report on PK results of BGAz-004 by multiple oral dosing
7 Materials and instrument combined dosing
An MS2 Turnover type oscillator was purchased from IKA Work’s Guangzhou (China), and a 5415R ChromatographicanalyseswereconductedusinganAgilent1290InfinityIIhighperformanceliquidchromatography andAgilentTechnologies6470TripleQuadLC/MS.Propranolol(≥90%inpurity,internalstandard,IS)waspurchased fromtheSigmaChemicalCo.(China).Formicacid(HPLCgrade)andmethanol(HPLCgrade)werepurchasedfrom DIKMACo.(China).Allchemicalsandsolventswereanalyticalgrade.WaterwaspurifiedusingaMillipore(AK,USA) laboratoryultra-purewatersystem(0.2μmfilter).
KMmice,weighing25–35g(BeijingVitalRiverLaboratoryAnimalTechnologyCo.,Ltd.,China)wereutilisedforthe studies.The protocols were approved by the Animal Care and Use Committee, GIBH. Animals were maintained on standard animal chow and waterad libitum, in a climate-controlled room (23±1 °C 30–70% relative humidity, a minimumof tenexchangesof roomairperhouranda12hlight/darkcycle)foroneweekpriortoexperiments.
9 Pharmacokinetic studies
Compound BGAz-004 were dissolved in the solution containing DMSO (2%), ethanol (4%), Cremophor EL (4%) and ddH2O (90%).The mice were given solution with 30 mg/kg bygastric gavagefor 3 days.Whole blood samples (100μL)wereobtainedfromtheorbitalvenousplexusatthefollowingtimepointsafterthethirddaydosing:5,15,30 min and 1, 3, 5, 8, 24 hour. Whole blood samples were collected in heparinised tubes. The plasma fraction was immediately separated by centrifugation. The mice were humanely euthanasia by carbon dioxide 24 hours after […]
10 Plasma sample analysis
10.1 Standard curve sample preparation
ThecompoundsweredissolvedinDMSO(2mg/mL)anddilutedwithtoseriesconcentration(methanol:H 2O,1:1,10 μL) and blank plasma (50 μL) were added to 1.5 mL tubes and vortexed for 3 min, then acetonitrile-containing internalstandard(150μL)wasaddedandvortexedforafurther5min,andsubsequentlyspuninacentrifugeat13000 […]
10.2 Plasma and preparation
Plasmasampleswerepreparedusingaproteinprecipitationmethod.Solution(10μL,methanolH 2O,1:1)andplasma samples(50μL)wereaddedto1.5mLtubesandvortexfor3min,thenacetonitrile-containinginternalstandard(150 μL)wasaddedandvortexfor5min,andsubsequentlyspuninacentrifugeat13000× gfor40minat4°C.
Aftercentrifugation,supernatant(100μL)wastransferto96wellplatesandanalysedbyLC-MS/MSusinganAgilent 1290InfinityIIHPLCandanAgilentTechnologies6470TripleQuadLC/MS.
Report on PK results of BGAz-005 by multiple oral dosing
13 Materials and instrument combined dosing […]
fromtheSigmaChemicalCo.(China).Formicacid(HPLCgrade)andmethanol(HPLCgrade)werepurchased from […]
15 Pharmacokinetic studies
Compound BGAz-005 were dissolved in the solution containing DMSO (2%), ethanol (4%), Cremophor EL (4%) […]
16 Plasma sample analysis
16.1 Standard curve sample preparation
16.2 Plasma and preparation

M. bovis BCG = assay type: cell-based, Mycobacterium bovis BCG
BCG pVV16-mmpL3 = assay type: cell-based, Mycobacterium bovis BCG
BCG = assay type: cell-based, Mycobacterium bovis BCG; conditions: 0.5 × MIC
BCG pTIC6-fbpB = assay type: cell-based, Mycobacterium bovis BCG
BCG pTIC6-fbpA = assay type: cell-based, Mycobacterium bovis BCG
[2] = multiple PO 30 mg/kg, times 4, mean of animals

Brc1cc(Br)cc(C2CC(CN3CCCC3)N2Cc2ccccc2Br)c1 (stereo not shown) [BGAz-004]
AUC(0-inf) ([1]; KM, mouse, plasma, 30 mg/kg, multiple PO 30 mg/kg, times 4, mean of animals, read-out: AUC(0-∞)): 5420 ng·h/mL | Cmax ([1]; KM, mouse, plasma, 30 mg/kg, multiple PO 30 mg/kg, times 4, mean of animals, read-out: Cmax): 364 ng/mL | Tmax ([1]; KM, mouse, plasma, 30 mg/kg, multiple PO 30 mg/kg, times 4, mean of animals, read-out: Tmax): 1 h | half-life ([1]; KM, mouse, plasma, 30 mg/kg, multiple PO 30 mg/kg, times 4, mean of animals, read-out: t1/2z (converted)): 8.07 h | AUC(0-inf) ([1]; KM, mouse, plasma, 30 mg/kg, multiple PO, times 4, 30 mg/kg, summary table, read-out: AUC(0-∞)): 5420 ng·h/mL | Cmax ([1]; KM, mouse, plasma, 30 mg/kg, multiple PO, times 4, 30 mg/kg, summary table, read-out: Cmax): 364 ng/mL | half-life ([1]; KM, mouse, plasma, 30 mg/kg, multiple PO, times 4, 30 mg/kg, summary table, read-out: T1/2 (converted)): 8.07 h | Tmax ([1]; KM, mouse, plasma, 30 mg/kg, multiple PO, times 4, 30 mg/kg, summary table, read-out: Tmax): 1 h | AUC(0-inf) ([1]; KM, mouse, plasma, 30 mg/kg, multiple daily dosing 4 × 30 mg/kg PO, read-out: AUC0-inf): 5420 ng·h/mL | Cmax ([1]; KM, mouse, plasma, 30 mg/kg, multiple daily dosing 4 × 30 mg/kg PO, read-out: Cmax (Mouse, P.O.)): 363 ng/mL | half-life ([1]; KM, mouse, plasma, 30 mg/kg, multiple daily dosing 4 × 30 mg/kg PO, read-out: T1/2 (Mouse, P.O.) (converted)): 8.1 h | Tmax ([1]; KM, mouse, plasma, 30 mg/kg, multiple daily dosing 4 × 30 mg/kg PO, read-out: Tmax (Mouse, P.O.)): 1 h | concentration at 0.083 h ([1]; KM, mouse, plasma, multiple PO 30 mg/kg, times 4, 0.083 h): 214 nM and 115 ng/mL | concentration at 0.25 h ([1]; KM, mouse, plasma, multiple PO 30 mg/kg, times 4, 0.25 h): 361 nM and 195 ng/mL | concentration at 0.5 h ([1]; KM, mouse, plasma, multiple PO 30 mg/kg, times 4, 0.5 h): 590 nM and 319 ng/mL | concentration at 1 h ([1]; KM, mouse, plasma, multiple PO 30 mg/kg, times 4, 1 h): 674 nM and 364 ng/mL | concentration at 3 h ([1]; KM, mouse, plasma, multiple PO 30 mg/kg, times 4, 3 h): 594 nM and 321 ng/mL | concentration at 5 h ([1]; KM, mouse, plasma, multiple PO 30 mg/kg, times 4, 5 h): 268 ng/mL and 496 nM | concentration at 8 h ([1]; KM, mouse, plasma, multiple PO 30 mg/kg, times 4, 8 h): 243 ng/mL and 450 nM | concentration at 24 h ([1]; KM, mouse, plasma, multiple PO 30 mg/kg, times 4, 24 h): 63.7 ng/mL and 118 nM | AUC(0-t) ([1]; KM, mouse, plasma, multiple PO 30 mg/kg, times 4, mean of animals): 4760 ng·h/mL | CL/F ([1]; KM, mouse, plasma, multiple PO 30 mg/kg, times 4, mean of animals, read-out: CLz/F (converted)): 95.4 mL/min/kg | MRT last ([1]; KM, mouse, plasma, multiple PO 30 mg/kg, times 4, mean of animals, read-out: MRT(0-t)): 7.85 h | MRT inf ([1]; KM, mouse, plasma, multiple PO 30 mg/kg, times 4, mean of animals, read-out: MRT(0-∞)): 11.7 h | Vd/F ([1]; KM, mouse, plasma, multiple PO 30 mg/kg, times 4, mean of animals, read-out: Vz/F): 67.5 L/kg | k el ([1]; KM, mouse, plasma, multiple PO 30 mg/kg, times 4, mean of animals, read-out: λz (converted)): 2.89e-05 s⁻¹ | AUMC(0-t) [1, 2]: 36514.994 h*h*μg | AUMC(0-∞) [1, 2]: 62413.77 h*h*μg | C_last [1, 2]: 46.151 µg | R_AUC(t/∞) [1, 2]: 87.55% | VRT(0-t) [1, 2]: 41.471 h^2 | VRT(0-∞) [1, 2]: 162.525 h^2 | T1/2 (Mouse, P.O.) ([1]; multiple daily dosing 4 × 30 mg/kg PO, 30 mg/kg): 8.07 h | log2FoldChange, gene BCG_0001 (M. bovis BCG): -0.1191 | log2FoldChange, gene BCG_0002 (M. bovis BCG): -0.5569 | log2FoldChange, gene BCG_0003 (M. bovis BCG): -0.5971 | log2FoldChange, gene BCG_0004 (M. bovis BCG): -0.2384 | log2FoldChange, gene BCG_0005 (M. bovis BCG): 0.5266 | BCG pVV16-mmpL3 MIC (BCG pVV16-mmpL3): 40 µM | TMM and TDM in cell envelope lipids (BCG): significant reduction | BCG pTIC6-fbpB MIC (BCG pTIC6-fbpB): 28 µM | increase in MIC upon overexpression of FbpB (BCG pTIC6-fbpB): two-fold increase | BCG pTIC6-fbpA MIC (BCG pTIC6-fbpA): 20 µM
